# Reference: the NIST ThermoML archive (doi:10.1016/j.tca.2016.09.002)
# ± gives the expanded uncertainty stated by the source.
# Tests used:
# [1] = 101.33 kPa, Liquid, Hot wire method
# [2] = wn = mass fraction of the nth substance listed; conditions: 303.15 K, 100.7 kPa, Liquid, Hot wire method
thermal conductivity ([1]; 303.15 K) [W/m/K],thermal conductivity ([1]; 313.15 K) [W/m/K],thermal conductivity ([1]; 323.15 K) [W/m/K],thermal conductivity ([2]; w1 = 0.0085) [W/m/K],thermal conductivity ([2]; w1 = 0.00761) [W/m/K],SMILES
0.254 ± 0.003,0.256 ± 0.004,0.26 ± 0.003,–,–,"OCCO [1,2-ethanediol]"
–,–,–,0.617 ± 0.006,–,C[C@H](CCC(=O)[O-])[C@H]1CC[C@H]2[C@@H]3CC[C@@H]4C[C@H](O)CC[C@]4(C)[C@H]3C[C@H](O)[C@]12C.[Na+] [sodium deoxycholate] + O
–,–,–,–,0.259 ± 0.003,C[C@H](CCC(=O)[O-])[C@H]1CC[C@H]2[C@@H]3CC[C@@H]4C[C@H](O)CC[C@]4(C)[C@H]3C[C@H](O)[C@]12C.[Na+] [sodium deoxycholate] + OCCO
0.607 ± 0.015,0.621 ± 0.016,0.631 ± 0.016,–,–,O [water]
